US20100173833A1, “METHODS AND COMPOSITION FOR USE OF CYCLIC ANALOGUES OF HISTATIN” (priority 2007, published 2010)
Values after ≈ are worked out from the molar mass of the structure shown. Bridge positions count the residues as written; N and C are the ends. Peptide text beside a SMILES is read from it.

What was measured:
[1] = tested on: Bacillus subtilis; assay: MIC, inhibition of cell growth; assay type: cell-based; details: lab strain; 1 hour 37° C. in 10 mM NaCl/50 mM MOPS, pH 7.2, then YPD 24 hours 37° C.
[2] = tested on: Candida albicans (isolate #77); details: clinical isolate #77; 1 hour 37° C. in 10 mM NaCl/50 mM MOPS, pH 7.2, then YPD 24 hours 30° C.
[3] = tested on: S. aureus (ATCC 29213); details: lab strain ATCC 29213; 1 hour 37° C. in 10 mM NaCl/50 mM MOPS, pH 7.2, then YPD 24 hours 37° C.
[4] = tested on: Candida albicans (isolate #99); details: clinical isolate #99; 1 hour 37° C. in 10 mM NaCl/50 mM MOPS, pH 7.2, then YPD 24 hours 30° C.
[5] = tested on: mice; assay: Tolerability in mice, intra-peritoneal injection; assay type: in vivo
Experimental: (§1) In addition, mice were able to withstand a concentration of 15 mg/kg of DB2121 when injected via an intra-peritoneal route. When injected into adult rats, a concentration of up to and including 1.5 mg/kg caused no harm when injected intra-venously.

[6] = tested on: Candida albicans (isolate #4); details: clinical isolate #4; 1 hour 37° C. in 10 mM NaCl/50 mM MOPS, pH 7.2, then YPD 24 hours 30° C.
[7] = tested on: Primary human neonatal foreskin epithelial cells; details: 50 μM working (antimicrobial) concentration
Experimental: At 18 and 36 hours following addition of compound, the foreskin epithelial cells were imaged using phase contract microscopy at 20× magnification. […] The experiments was repeated three times.

[8] = tested on: Candida albicans (isolate #5); details: clinical isolate #5; 1 hour 37° C. in 10 mM NaCl/50 mM MOPS, pH 7.2, then YPD 24 hours 30° C.
[9] = tested on: Candida albicans (isolate #28); details: clinical isolate #28; 1 hour 37° C. in 10 mM NaCl/50 mM MOPS, pH 7.2, then YPD 24 hours 30° C.
[10] = tested on: Candida albicans (isolate #3); details: clinical isolate #3; 1 hour 37° C. in 10 mM NaCl/50 mM MOPS, pH 7.2, then YPD 24 hours 30° C.
[11] = tested on: Candida albicans (isolate #11); details: clinical isolate #11; 1 hour 37° C. in 10 mM NaCl/50 mM MOPS, pH 7.2, then YPD 24 hours 30° C.
[12] = tested on: Candida albicans; details: concentration of cyclic Histatin analogue, alone or in combination; 1 hour 37° C. in 20 mM Tris-Cl, pH 7.2, 20 mM NaCl, then YPD 24 hours
[13] = tested on: S. aurens (ATCC 43300); details: lab strain ATCC 43300; 1 hour 37° C. in 10 mM NaCl/50 mM MOPS, pH 7.2, then YPD 24 hours 37° C.
[14] = tested on: MRSAS. aureus (STRAIN 2); details: clinical MRSA strain 2; 1 hour 37° C. in 10 mM NaCl/50 mM MOPS, pH 7.2, then YPD 24 hours 37° C.
[15] = tested on: primary human foreskin epithelial cell culture; details: various concentrations, 0, 36 and 72 hours (FIG. 3)
Experimental: To determine range of non-toxic concentrations of DB2121, various concentration s of DB2121, 50 μM ketoconazole or DMSO as a control were separately added to primary human foreskin epithelial cell culture. At 0, 36 and 72 hours after addition, the epithelial cells were titriated off the culture plate and the viable cell number was determined. The experiment was performed in triplicate. At 72 hours, the foreskin epithelial cells exposed to the various compounds were imaged at 20× magnification using phase contrast microscopy. For cell counting, the epithelial cells were stained with trypan exclusion stain to monitor cell viability.

[16] = tested on: phosphorylated ERK 1, 2; details: 50 μM, primary human foreskin epithelial cells
Experimental: Toxicological studies of DB2121 in human cells were also undertaken. Primary human neonatal foreskin epithelial cells were used to examine DB2121 toxicity, using a method as described in Min et al. 2004. […] At 18 and 36 hours following addition of compound, the foreskin epithelial cells were imaged using phase contract microscopy at 20× magnification. (E) Immediately following the image analysis, proteins were extracted, separated on SDS-PAGE gels, Western blotted, and probed for Phosphorylated and non-phosphorylated ERK 1, 2 to monitor the proliferation of the foreskin keratinocytes. The experiments was repeated three times.
The primary cells were lysed and monitored for a marker of proliferation namely phosphorylated ERK 1, 2.

[17] = tested on: Candida albicans (isolate #98); details: clinical isolate #98; 1 hour 37° C. in 10 mM NaCl/50 mM MOPS, pH 7.2, then YPD 24 hours 30° C.
[18] = tested on: Candida albicans (SC5314); details: lab strain; 1 hour 37° C. in 10 mM NaCl/50 mM MOPS, pH 7.2, then YPD broth 24 hours 30° C.
[19] = tested on: S. haemolyticus (ATCC 29970); details: lab strain ATCC 29970; 1 hour 37° C. in 10 mM NaCl/50 mM MOPS, pH 7.2, then YPD 24 hours 37° C.
[20] = tested on: S. aurens (ATCC 25923); details: lab strain ATCC 25923; 1 hour 37° C. in 10 mM NaCl/50 mM MOPS, pH 7.2, then YPD 24 hours 37° C.
[21] = tested on: MRSAS. aureus (STRAIN 1); details: clinical MRSA strain 1; 1 hour 37° C. in 10 mM NaCl/50 mM MOPS, pH 7.2, then YPD 24 hours 37° C.
[22] = 1 uM, 37° C., in vitro
Experimental: The cyclic analogue was incubated in human saliva at a concentration of 1 uM and at a temperature of 37° C. in vitro. At various time points from 0 to 72 hours, 1.0 ul aliquots were taken and injected directly into a Micromass Quattro Micro mass spectrometer. Data was collected for a total of 3 minutes. The data was then processed using Mass Lynx 4.0 Analysis software.

[23] = tested on: Candida dubliniensis (isolate #10); details: clinical isolate #10; 1 hour 37° C. in 10 mM NaCl/50 mM MOPS, pH 7.2, then YPD 24 hours 30° C.
[24] = tested on: Candida tropicalis (isolate #93); details: clinical isolate #93; 1 hour 37° C. in 10 mM NaCl/50 mM MOPS, pH 7.2, then YPD 24 hours 30° C.
[25] = tested on: adult rats; assay: Tolerability in adult rats, intra-venous injection; assay type: in vivo
Experimental: as §1

[26] = tested on: Candida albicans (isolate #AST97); details: clinical isolate AST97 (blood culture); 1 hour 37° C. in 10 mM NaCl/50 mM MOPS, pH 7.2, then YPD 24 hours 30° C.

N=C(N)NCCC[C@H](NC(=O)[C@H](Cc1c[nH]cn1)NC(=O)[C@@H]1CSSC[C@H](NC(=O)[C@H](Cc2c[nH]cn2)NC(=O)[C@H](Cc2c[nH]cn2)NC(=O)[C@@H](N)CCCNC(=N)N)C(=O)N[C@@H](Cc2ccc(O)cc2)C(=O)N[C@@H](CCCCN)C(=O)N[C@@H](CCCNC(=N)N)C(=O)N[C@@H](CCCCN)C(=O)N[C@@H](Cc2ccccc2)C(=O)N[C@@H](Cc2c[nH]cn2)C(=O)N[C@@H](CCC(=O)O)C(=O)N[C@@H](CCCCN)C(=O)N[C@@H](Cc2c[nH]cn2)C(=O)N[C@@H](Cc2c[nH]cn2)C(=O)N1)C(=O)NCC(=O)N[C@@H](Cc1ccc(O)cc1)C(=O)O [DB2121] (H-RHHCYKRKFHEKHHCHRGY-OH; disulfide 4-15) showed an MIC [1] of 23.9 µM (≈ 61.1 µg/mL), an MIC [2] of 4.5 µM (≈ 11.5 µg/mL) and an MIC [3] of 12.5 µM (≈ 32 µg/mL). It also gave an MIC [4] of 4.5 µM (≈ 11.5 µg/mL), a concentration withstood [5] of 15 mg/kg and an MIC [6] of 4.5 µM (≈ 11.5 µg/mL). For the same compound, the “toxicity to human primary cells” value [7] was “non-toxic”, the MIC [8] was 4.5 µM (≈ 11.5 µg/mL) and the MIC [9] was 4.5 µM (≈ 11.5 µg/mL). For the same compound, the MIC [10] was 8.0 µM (≈ 20.5 µg/mL), the MIC [11] was 6.5 µM (≈ 16.6 µg/mL) and the “MIC (DB2121)” value [12] was 11 µM. The MIC [13] was 5.5 µM (≈ 14.1 µg/mL), the MIC [14] was 11.5 µM (≈ 29.4 µg/mL) and the “toxicity in primary cultured cells (viable cell number)” value [15] was “minimal toxicity”. The “ERK 1, 2 activation compared to control” value [16] was “not suppressed”, the MIC [17] was 4.5 µM (≈ 11.5 µg/mL) and the MIC [18] was 4.5 µM (≈ 11.5 µg/mL). The MIC [19] was 4.5 µM (≈ 11.5 µg/mL), the MIC [20] was 4.5 µM (≈ 11.5 µg/mL) and the MIC [21] was 11.5 µM (≈ 29.4 µg/mL). The “stable in human saliva” value [22] was “at least 72 hours”, the MIC [23] was 4.5 µM (≈ 11.5 µg/mL) and the MIC [24] was 4.5 µM (≈ 11.5 µg/mL). For the same compound, the “concentration that caused no harm” value [25] was no more than 1.5 mg/kg and the MIC [26] was 7.8 µM (≈ 20 µg/mL).
